The record followed here is US8470828B2, “Anellated pyridine compounds” (Hoffmann-La Roche Inc., priority 2010, dated 2013).

Data set [1] concerns the target T1, human D2 receptor (Homo sapiens, UniProt P14416).
T1 construct: expressed in transfected cells; host or cells: HEK293 EBNA cells, transient transfection; membrane preparation
Briefly: Radioligand binding to cloned human D2 receptor expressed in HEK-293 EBNA cells ([3H]-spiperone). As to conditions: HEK293 EBNA cell membranes, approximately 0.7 nM [3H]-spiperone, 1 h at RT.
Procedure: HEK293 EBNA cells were transiently transfected with expression plasmids encoding for the human D2 or D3 or for the human 5-HT2A receptor, respectively. The cells were harvested 48 h post-transfection, washed three times with cold PBS and stored at −80° C. prior to use. The pellet was suspended in cold 50 mM Tris-HCl buffer comprising 10 mM EDTA (pH 7.4) and was homogenized with a Polytron (Kinematica A G, Basel, Switzerland) for 20-30 sec at 12.000 rpm. After centrifugation at 48.000×g for 30 min at 4° C., the pellet was resuspended in cold 10 mM Tris-HCl buffer comprising 0.1 mM EDTA (pH 7.4), homogenized, and centrifuged as above. This pellet was further resuspended in a smaller volume of ice cold 10 mM Tris-HCl buffer comprising 0.1 mM EDTA (pH 7.4) and homogenized with a Polytron for 20-30 sec at 12.000 rpm. The protein content of this homogenate was determined with the Bio-Rad (Bradford) Protein Assay (Biorad Laboratories GmbH, München, Germany) according to the instructions of the manufacturer using gamma globulin as the standard. This homogenate was stored at −80° C. in aliquots and thawed immediately prior to use.
Aliquots of membrane preparations were thawed at RT, resupended in assay buffer (D2, D3: 50 mM Tris-HCl, 120 mM NaCl, 5 mM MgCl2, 1 mM EDTA, 5 mM KCl, 1.5 mM CaCl2, pH=7.4; 5-HT2A: 50 mM Tris-HCl, 10 mM MgCl2, 1 mM EGTA, pH=7.4), homogenized with a Polytron for 20-30 sec at 12.000 rpm and adjusted to a final concentration of approximately 7.5 μg protein/well (D2, D3) and 15 μg protein/well (5-HT2A), respectively.
The binding affinity (Ki) of the compounds was determined using radioligand binding. Membranes were incubated in a total volume of 200 μl with a fixed concentration of radioligand (final concentration approximately 0.7 nM [^3H]-spiperone for D2, 0.5 nM [^3H]-spiperone for D3, and 1.1 nM [^3H]-ketanserin for 5-HT2A) and ten concentrations of test compound in ranging between 10 μM-0.1 nM for 1 h at RT. At the end of the incubation, the reaction mixtures were filtered on to unifilter 96-well white microplates with bonded GF/C filters (Packard BioScience, Zürich, Switzerland; preincubated for 1 h in 0.1% polyethylenimine (PEI) in assay buffer) with a Filtermate 196 harvester (Packard BioScience) and washed 3 times with cold assay buffer. The nonspecific binding was determined with equally composed reaction mixtures in the presence of 10 μM unlabelled spiperone. Per well 45 μl of Microscint 40 (Perkin Elmer, Schwerzenbach, Switzerland) was added, plates for sealed, shaken for 20 min and counted for 3 min on a Topcount Microplate Scintillation Counter (Can berra Packard S A, Zürich, Switzerland) with quenching correction.
The CPM value for each duplicate of a concentration of competing compound was averaged (y1), then the % specific binding was calculated according to the equation (((y1−non-specific)/(total binding−non-specific))×100). Graphs were plotted with the % specific binding using XLfit, a curve fitting program that iteratively plots the data using Levenberg-Marquardt algorithm. The single site competition analysis equation used was y=A+((B−A)/(1+((x/C)D))), where y is the % specific binding, A is the minimum y, B is the maximum y, C is the IC50, x is the log 10 of the concentration of the competing compound and D is the slope of the curve (the Hill Coefficient). […] The affinity constant (Ki) was calculated using the Cheng-Prusoff equation Ki=(IC50/1+([L]/Kd), where [L] is the concentration of radioligand and Kd is the dissociation constant of the radioligand at the receptor as determined by the saturation isotherm.

Data set [2] has as its target human D3 receptor (Homo sapiens, UniProt P35462). The data set can be described thus: Radioligand binding to cloned human D3 receptor expressed in HEK-293 EBNA cells ([3H]-spiperone).
Data set [3] has as its target human 5-HT2A receptor (Homo sapiens, UniProt P28223). Briefly: Radioligand binding to cloned human 5-HT2A receptor expressed in HEK-293 EBNA cells ([3H]-ketanserin).

Sequence of human D3 receptor (P35462 whole entry): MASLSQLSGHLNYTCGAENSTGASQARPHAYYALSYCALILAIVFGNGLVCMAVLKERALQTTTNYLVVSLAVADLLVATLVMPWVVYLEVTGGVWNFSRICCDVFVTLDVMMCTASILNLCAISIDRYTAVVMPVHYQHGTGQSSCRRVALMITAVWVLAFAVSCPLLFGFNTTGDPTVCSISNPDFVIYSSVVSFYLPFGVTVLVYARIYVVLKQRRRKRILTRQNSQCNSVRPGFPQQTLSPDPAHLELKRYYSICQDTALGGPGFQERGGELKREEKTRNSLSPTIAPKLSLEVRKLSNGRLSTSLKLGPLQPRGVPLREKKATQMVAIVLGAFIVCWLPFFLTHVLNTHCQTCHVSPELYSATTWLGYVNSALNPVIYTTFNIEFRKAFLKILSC
Sequence of human 5-HT2A receptor (P28223 whole entry): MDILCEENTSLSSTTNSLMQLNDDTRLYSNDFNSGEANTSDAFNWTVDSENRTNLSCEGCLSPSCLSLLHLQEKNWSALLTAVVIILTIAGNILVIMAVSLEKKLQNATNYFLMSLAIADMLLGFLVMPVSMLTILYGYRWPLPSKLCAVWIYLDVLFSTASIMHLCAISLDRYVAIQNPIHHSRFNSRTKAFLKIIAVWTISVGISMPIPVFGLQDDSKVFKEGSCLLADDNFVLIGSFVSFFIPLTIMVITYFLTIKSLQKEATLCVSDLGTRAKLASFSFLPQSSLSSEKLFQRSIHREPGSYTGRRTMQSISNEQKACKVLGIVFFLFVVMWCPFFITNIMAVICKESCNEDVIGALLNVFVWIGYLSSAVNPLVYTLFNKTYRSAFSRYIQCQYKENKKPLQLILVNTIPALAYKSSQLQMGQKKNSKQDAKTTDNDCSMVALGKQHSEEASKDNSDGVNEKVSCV
T1 sequence (P14416 whole entry): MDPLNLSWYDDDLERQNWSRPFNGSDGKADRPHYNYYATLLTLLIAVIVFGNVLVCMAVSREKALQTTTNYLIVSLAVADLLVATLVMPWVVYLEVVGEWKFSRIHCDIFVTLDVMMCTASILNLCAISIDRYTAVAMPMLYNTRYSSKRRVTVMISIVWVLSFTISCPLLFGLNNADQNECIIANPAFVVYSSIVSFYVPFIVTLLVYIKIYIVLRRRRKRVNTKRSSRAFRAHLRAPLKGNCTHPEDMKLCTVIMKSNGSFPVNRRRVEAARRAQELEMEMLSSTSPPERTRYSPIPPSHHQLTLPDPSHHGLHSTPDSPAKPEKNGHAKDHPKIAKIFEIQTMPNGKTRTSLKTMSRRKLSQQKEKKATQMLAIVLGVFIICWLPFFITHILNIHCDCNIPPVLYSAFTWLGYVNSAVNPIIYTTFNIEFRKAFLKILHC

Take `O=C(CC1CCC1)N[C@H]1CC[C@H](CCN2CCN(c3nccc4c3OCC4)CC2)CC1` [Example 25, trans-2-Cyclobutyl-N-(4-{2-[4-(2,3-dihydro-furo[2,3-c]pyridin-7-yl)-piperazin-1-yl]-ethyl}-cyclohexyl)-acetamide]: the melting point was found to be 147.5 °C. Besides, the affinity in data set [1] corresponds to a Ki of 531 nM. Further, in data set [2], the Ki turned out to be 5.78 nM. Further, in data set [3], affinity was put at a Ki of 36.9 nM.
For `CS(=O)(=O)N[C@H]1CC[C@H](CCN2CCN(c3nccc4c3OCC4)CC2)CC1` [Example 26, trans-N-(4-{2-[4-(2,3-Dihydro-furo[2,3-c]pyridin-7-yl)-piperazin-1-yl]-ethyl}-cyclohexyl)-methanesulfonamide], the melting point was 220 °C. In data set [1], this compound showed a Ki of 481 nM. In addition, in data set [2], the Ki turned out to be 13.9 nM. In data set [3], this compound returned a Ki of 70.8 nM.
The like results for `CCS(=O)(=O)N[C@H]1CC[C@H](CCN2CCN(c3nccc4c3OCC4)CC2)CC1` [Example 27, Ethanesulfonic acid trans-(4-{2-[4-(2,3-dihydro-furo[2,3-c]pyridin-7-yl)-piperazin-1-yl]-ethyl}-cyclohexyl)-amide] were, in that order, 190 °C, 367 nM, 11.3 nM and 60.5 nM.
For `O=C(CO)N[C@H]1CC[C@H](CCN2CCN(c3nccc4c3OCC4)CC2)CC1` [Example 28, trans-N-(4-{2-[4-(2,3-Dihydro-furo[2,3-c]pyridin-7-yl)-piperazin-1-yl]-ethyl}-cyclohexyl)-2-hydroxy-acetamide], in that order: 246 °C, 425 nM, 7.76 nM and 31.3 nM.
For `O=C(CC1CC1)N[C@H]1CC[C@H](CCN2CCN(c3nccc4c3OCC4)CC2)CC1` [Example 30, trans-2-Cyclopropyl-N-(4-{2-[4-(2,3-dihydro-furo[2,3-c]pyridin-7-yl)-piperazin-1-yl]-ethyl}-cyclohexyl)-acetamide], in that order: 197.5 °C, 184 nM, 3.34 nM and 33.3 nM.
`N#CCC(=O)N[C@H]1CC[C@H](CCN2CCN(c3nccc4c3OCC4)CC2)CC1` [Example 31, trans-2-Cyano-N-(4-{2-[4-(2,3-dihydro-furo[2,3-c]pyridin-7-yl)-piperazin-1-yl]-ethyl}-cyclohexyl)-acetamide] had a melting point of 215.5 °C. For the same compound, in data set [1], the Ki was 137 nM. In addition, in data set [2], the Ki is 2.19 nM. For the same compound, the Ki in data set [3] amounted to 29.7 nM.
The like results for `O=C(C[C@H]1COCCO1)N[C@H]1CC[C@H](CCN2CCN(c3nccc4c3OCC4)CC2)CC1` [Example 32, trans-N-(4-{2-[4-(2,3-Dihydro-furo[2,3-c]pyridin-7-yl)-piperazin-1-yl]-ethyl}-cyclohexyl)-2-(S)[1,4]dioxan-2-yl-acetamide] were, in that order, 181 °C, 822 nM, 10.6 nM and 18.9 nM.
The like results for `O=C(CC(F)(F)F)N[C@H]1CC[C@H](CCN2CCN(c3nccc4c3OCC4)CC2)CC1` [Example 33, trans-N-(4-{2-[4-(2,3-Dihydro-furo[2,3-c]pyridin-7-yl)-piperazin-1-yl]-ethyl}-cyclohexyl)-3,3,3-trifluoro-propionamide] were, in that order, 216.5 °C, 276 nM, 4.29 nM and 44.2 nM.
`O=C(N[C@H]1CC[C@H](CCN2CCN(c3nccc4c3OCC4)CC2)CC1)C1CCOC1` (stereo partly drawn) [Example 34, Tetrahydro-furan-3-carboxylic acid trans-(4-{2-[4-(2,3-dihydro-furo[2,3-c]pyridin-7-yl)-piperazin-1-yl]-ethyl}-cyclohexyl)-amide] yielded a melting point of 195 °C. Besides, the Ki in data set [1] came out at 172 nM. Besides, affinity in data set [2] was put at a Ki of 7.43 nM. Besides, in data set [3], the Ki is 28 nM.
For the compound `O=C(C[C@@H]1COCCO1)N[C@H]1CC[C@H](CCN2CCN(c3nccc4c3OCC4)CC2)CC1` [Example 35, trans-N-(4-{2-[4-(2,3-Dihydro-furo[2,3-c]pyridin-7-yl)-piperazin-1-yl]-ethyl}-cyclohexyl)-2-(R)-[1,4]dioxan-2-yl-acetamide], the melting point is 181 °C. Besides, the Ki in data set [1] was found to be 384 nM. The compound also returned a Ki in data set [2] of 8.28 nM. Further, the affinity in data set [3] corresponds to a Ki of 36.1 nM.
The like results for `O=C(N[C@H]1CC[C@H](CCN2CCN(c3nccc4c3OCC4)CC2)CC1)C1CC1` [Example 36, trans-Cyclopropanecarboxylic acid (4-{2-[4-(2,3-dihydro-furo[2,3-c]pyridin-7-yl)-piperazin-1-yl]-ethyl}-cyclohexyl)-amide] were, in that order, 193 °C, 102 nM, 7.49 nM and 32.3 nM.
For `CC(C)C(=O)N[C@H]1CC[C@H](CCN2CCN(c3nccc4c3OCC4)CC2)CC1` [Example 37, trans-N-(4-{2-[4-(2,3-Dihydro-furo[2,3-c]pyridin-7-yl)-piperazin-1-yl]-ethyl}-cyclohexyl)-isobutyramide], in that order: 203.5 °C, 265 nM, 7.25 nM and 34.8 nM.
With `O=C(N[C@H]1CC[C@H](CCN2CCN(c3nccc4c3OCC4)CC2)CC1)c1ccc(N2CCOCC2)cc1` [Example 38, trans-N-(4-{2-[4-(2,3-Dihydro-furo[2,3-c]pyridin-7-yl)-piperazin-1-yl]-ethyl}-cyclohexyl)-4-morpholin-4-yl-benzamide], the melting point was determined as 241.5 °C. Further, the Ki in data set [1] turned out to be 2280 nM. The compound further came in with a Ki in data set [2] of 15.5 nM. For the same compound, in data set [3], the Ki was 16.6 nM.
Regarding `O=C(N[C@H]1CC[C@H](CCN2CCN(c3nccc4c3OCC4)CC2)CC1)c1ccnc2ccccc12` [Example 39, Quinoline-4-carboxylic acid trans-(4-{2-[4-(2,3-dihydro-furo[2,3-c]pyridin-7-yl)-piperazin-1-yl]-ethyl}-cyclohexyl)-amide], the melting point was determined as 222 °C. Further, the “D2 Ki” value in data set [1] was “inactive”. In data set [2], this compound showed a Ki of 6.22 nM. The Ki in data set [3] amounted to 21.9 nM.
In the case of `O=C(N[C@H]1CC[C@H](CCN2CCN(c3nccc4c3OCC4)CC2)CC1)c1ccc(F)cc1` [Example 40, trans-N-(4-{2-[4-(2,3-Dihydro-furo[2,3-c]pyridin-7-yl)-piperazin-1-yl]-ethyl}-cyclohexyl)-4-fluoro-benzamide], the melting point turned out to be 235.5 °C. Moreover, the Ki in data set [1] amounted to 1650 nM. The compound further registered a Ki in data set [2] of 8.93 nM. In data set [3], this compound returned a Ki of 22.1 nM.
For `CN(C)C(=O)CCC(=O)N[C@H]1CC[C@H](CCN2CCN(c3nccc4c3OCC4)CC2)CC1` [Example 41, trans-N-(4-{2-[4-(2,3-Dihydro-furo[2,3-c]pyridin-7-yl)-piperazin-1-yl]-ethyl}-cyclohexyl)-N′,N′-dimethyl-succinamide], in that order: 177.5 °C, 2350 nM, 33.4 nM and 63.8 nM.
For `CC(C)CCC(=O)N[C@H]1CC[C@H](CCN2CCN(c3nccc4c3OCC4)CC2)CC1` [Example 42, trans-4-Methyl-pentanoic acid (4-{2-[4-(2,3-dihydro-furo[2,3-c]pyridin-7-yl)-piperazin-1-yl]-ethyl}-cyclohexyl)-amide], in that order: 175 °C, 879 nM, 15.5 nM and 44.4 nM.
Turning to `Cc1cc(CC(=O)N[C@H]2CC[C@H](CCN3CCN(c4nccc5c4OCC5)CC3)CC2)on1` [Example 43, trans-N-(4-{2-[4-(2,3-Dihydro-furo[2,3-c]pyridin-7-yl)-piperazin-1-yl]-ethyl}-cyclohexyl)-2-(3-methyl-isoxazol-5-yl)-acetamide], the melting point amounted to 222.5 °C. In data set [1], this compound displayed a Ki of 3710 nM. Moreover, in data set [2], the Ki came to 2.68 nM. This compound also came in with a Ki in data set [3] of 41.2 nM.
The like results for `O=C(N[C@H]1CC[C@H](CCN2CCN(c3nccc4c3OCC4)CC2)CC1)C1(O)CC1` [Example 44, 1-Hydroxy-cyclopropanecarboxylic acid trans-(4-{2-[4-(2,3-dihydro-furo[2,3-c]pyridin-7-yl)-piperazin-1-yl]-ethyl}-cyclohexyl)-amide] were, in that order, 248.5 °C, 793 nM, 16.8 nM and 9.91 nM.
Take `CCCC(=O)N[C@H]1CC[C@H](CCN2CCN(c3nccc4c3OCC4)CC2)CC1` [Example 45, trans-N-(4-{2-[4-(2,3-Dihydro-furo[2,3-c]pyridin-7-yl)-piperazin-1-yl]-ethyl}-cyclohexyl)-butyramide]: the melting point is 183 °C. This compound had an inhibition constant (Ki) in data set [1] of 731 nM. Affinity in data set [2] was put at a Ki of 10.1 nM. Besides, the Ki in data set [3] came out at 50.1 nM.
The like results for `CC(C)(O)CC(=O)N[C@H]1CC[C@H](CCN2CCN(c3nccc4c3OCC4)CC2)CC1` [Example 46, trans-N-(4-{2-[4-(2,3-Dihydro-furo[2,3-c]pyridin-7-yl)-piperazin-1-yl]-ethyl}-cyclohexyl)-3-hydroxy-3-methyl-butyramide] were, in that order, 139 °C, 904 nM, 14 nM and 49.6 nM.
The like results for `O=C(C[C@@H](O)C(F)(F)F)N[C@H]1CC[C@H](CCN2CCN(c3nccc4c3OCC4)CC2)CC1` [Example 47, trans-(R)—N-(4-{2-[4-(2,3-Dihydro-furo[2,3-c]pyridin-7-yl)-piperazin-1-yl]-ethyl}-cyclohexyl)-4,4,4-trifluoro-3-hydroxy-butyramide] were, in that order, 214.5 °C, 943 nM, 15 nM and 89 nM.

As usually defined, the Ki is the dissociation constant of the complex between target and ligand, obtained from inhibition or displacement. A lower Ki goes with tighter binding. As a reminder, the melting point is the temperature, or range, at which the solid turns liquid.
